Laboratory results published in the NIST ThermoML archive (doi:10.1016/j.fluid.2017.12.010).
Numbers after ± are expanded uncertainties.

Test: xn = mol fraction of the nth substance listed
Conditions: Liquid, Vibrating tube method

In the case of `CCCCCCCCCCCC` [dodecane] + CCCCCCCCCC, the mass density (323.11 K, 10000 kPa, x2 = 0.4436) is reported as 728 ± 3 kg/m3, the mass density (323.11 K, 20000 kPa, x2 = 0.4436) is reported as 735 ± 3 kg/m3 and the mass density (323.11 K, 30000 kPa, x2 = 0.4436) is reported as 742 ± 3 kg/m3. It also gave a mass density (323.12 K, 40000 kPa, x2 = 0.4436) of 749 ± 3 kg/m3, a mass density (323.12 K, 60000 kPa, x2 = 0.4436) of 761 ± 3 kg/m3 and a mass density (323.12 K, 80000 kPa, x2 = 0.4436) of 771 ± 3 kg/m3. For the same compound, the mass density (323.13 K, 100000 kPa, x2 = 0.4436) was 781 ± 3 kg/m3, the mass density (323.21 K, 100 kPa, x2 = 0.6433) was 715 ± 3 kg/m3 and the mass density (323.21 K, 1000 kPa, x2 = 0.6433) was 716 ± 3 kg/m3. The mass density (323.21 K, 5000 kPa, x2 = 0.6433) was 720 ± 3 kg/m3, the mass density (323.21 K, 10000 kPa, x2 = 0.6433) was 724 ± 3 kg/m3 and the mass density (323.21 K, 20000 kPa, x2 = 0.6433) was 732 ± 3 kg/m3. The mass density (323.22 K, 30000 kPa, x2 = 0.6433) was 739 ± 3 kg/m3, the mass density (323.22 K, 40000 kPa, x2 = 0.6433) was 746 ± 3 kg/m3 and the mass density (323.22 K, 60000 kPa, x2 = 0.6433) was 757 ± 3 kg/m3. The mass density (323.22 K, 80000 kPa, x2 = 0.6433) was 768 ± 3 kg/m3, the mass density (323.22 K, 100000 kPa, x2 = 0.6433) was 777 ± 3 kg/m3 and the mass density (323.23 K, 5000 kPa, x2 = 0.7841) was 717 ± 3 kg/m3. The mass density (323.24 K, 100 kPa, x2 = 0.7841) was 712 ± 3 kg/m3, the mass density (323.24 K, 1000 kPa, x2 = 0.7841) was 713 ± 3 kg/m3 and the mass density (323.24 K, 10000 kPa, x2 = 0.7841) was 721 ± 3 kg/m3. The mass density (323.24 K, 20000 kPa, x2 = 0.7841) was 729 ± 3 kg/m3, the mass density (323.24 K, 30000 kPa, x2 = 0.7841) was 736 ± 3 kg/m3 and the mass density (323.24 K, 40000 kPa, x2 = 0.7841) was 743 ± 3 kg/m3. It also gave a mass density (323.24 K, 60000 kPa, x2 = 0.7841) of 755 ± 3 kg/m3, a mass density (323.24 K, 80000 kPa, x2 = 0.7841) of 765 ± 3 kg/m3 and a mass density (323.24 K, 99990 kPa, x2 = 0.7841) of 775 ± 3 kg/m3. It also gave a mass density (332.74 K, 100 kPa, x2 = 0) of 720 ± 3 kg/m3, a mass density (332.74 K, 1000 kPa, x2 = 0) of 721 ± 3 kg/m3 and a mass density (332.74 K, 5000 kPa, x2 = 0) of 725 ± 3 kg/m3. For the same compound, the mass density (332.74 K, 10000 kPa, x2 = 0) was 729 ± 3 kg/m3, the mass density (332.74 K, 20000 kPa, x2 = 0) was 737 ± 3 kg/m3 and the mass density (332.74 K, 30000 kPa, x2 = 0) was 744 ± 3 kg/m3. The mass density (332.74 K, 40000 kPa, x2 = 0) was 750 ± 3 kg/m3, the mass density (332.74 K, 50000 kPa, x2 = 0) was 757 ± 3 kg/m3 and the mass density (332.74 K, 60000 kPa, x2 = 0) was 762 ± 3 kg/m3. For the same compound, the mass density (332.74 K, 70000 kPa, x2 = 0) was 768 ± 3 kg/m3, the mass density (332.74 K, 80000 kPa, x2 = 0) was 773 ± 3 kg/m3 and the mass density (332.74 K, 90000 kPa, x2 = 0) was 778 ± 3 kg/m3. The mass density (332.75 K, 100000 kPa, x2 = 0) was 782 ± 3 kg/m3, the mass density (332.97 K, 100 kPa, x2 = 0.4436) was 712 ± 3 kg/m3 and the mass density (332.98 K, 1000 kPa, x2 = 0.4436) was 713 ± 3 kg/m3. The mass density (332.99 K, 5000 kPa, x2 = 0.4436) was 717 ± 3 kg/m3, the mass density (332.99 K, 10000 kPa, x2 = 0.4436) was 721 ± 3 kg/m3 and the mass density (332.99 K, 20000 kPa, x2 = 0.4436) was 729 ± 3 kg/m3. For the same compound, the mass density (333 K, 100 kPa, x2 = 0.2297) was 716 ± 3 kg/m3, the mass density (333 K, 1000 kPa, x2 = 0.2297) was 717 ± 3 kg/m3 and the mass density (333 K, 5000 kPa, x2 = 0.2297) was 720 ± 3 kg/m3. For the same compound, the mass density (333 K, 30000 kPa, x2 = 0.4436) was 736 ± 3 kg/m3, the mass density (333 K, 40000 kPa, x2 = 0.4436) was 743 ± 3 kg/m3 and the mass density (333.01 K, 10000 kPa, x2 = 0.2297) was 725 ± 3 kg/m3. For the same compound, the mass density (333.01 K, 20000 kPa, x2 = 0.2297) was 733 ± 3 kg/m3, the mass density (333.01 K, 60000 kPa, x2 = 0.4436) was 755 ± 3 kg/m3 and the mass density (333.01 K, 80000 kPa, x2 = 0.4436) was 766 ± 3 kg/m3. The mass density (333.01 K, 100000 kPa, x2 = 0.4436) was 776 ± 3 kg/m3, the mass density (333.02 K, 30000 kPa, x2 = 0.2297) was 740 ± 3 kg/m3 and the mass density (333.02 K, 40000 kPa, x2 = 0.2297) was 747 ± 3 kg/m3. For the same compound, the mass density (333.02 K, 60000 kPa, x2 = 0.2297) was 758 ± 3 kg/m3, the mass density (333.03 K, 80000 kPa, x2 = 0.2297) was 769 ± 3 kg/m3 and the mass density (333.03 K, 100000 kPa, x2 = 0.2297) was 779 ± 3 kg/m3. For the same compound, the mass density (333.06 K, 100 kPa, x2 = 0.7841) was 705 ± 3 kg/m3, the mass density (333.07 K, 1000 kPa, x2 = 0.7841) was 706 ± 3 kg/m3 and the mass density (333.07 K, 40000 kPa, x2 = 0.7841) was 737 ± 3 kg/m3. For the same compound, the mass density (333.08 K, 5000 kPa, x2 = 0.7841) was 710 ± 3 kg/m3, the mass density (333.08 K, 10000 kPa, x2 = 0.7841) was 714 ± 3 kg/m3 and the mass density (333.08 K, 20000 kPa, x2 = 0.7841) was 723 ± 3 kg/m3. For the same compound, the mass density (333.08 K, 30000 kPa, x2 = 0.7841) was 730 ± 3 kg/m3, the mass density (333.08 K, 60000 kPa, x2 = 0.7841) was 749 ± 3 kg/m3 and the mass density (333.08 K, 80000 kPa, x2 = 0.7841) was 760 ± 3 kg/m3. For the same compound, the mass density (333.08 K, 100000 kPa, x2 = 0.7841) was 770 ± 3 kg/m3, the mass density (333.09 K, 100 kPa, x2 = 0.6433) was 708 ± 3 kg/m3 and the mass density (333.09 K, 1000 kPa, x2 = 0.6433) was 709 ± 3 kg/m3. For the same compound, the mass density (333.09 K, 5000 kPa, x2 = 0.6433) was 713 ± 3 kg/m3, the mass density (333.09 K, 10000 kPa, x2 = 0.6433) was 717 ± 3 kg/m3 and the mass density (333.09 K, 30000 kPa, x2 = 0.6433) was 733 ± 3 kg/m3. The mass density (333.1 K, 20000 kPa, x2 = 0.6433) was 725 ± 3 kg/m3, the mass density (333.1 K, 40000 kPa, x2 = 0.6433) was 740 ± 3 kg/m3 and the mass density (333.1 K, 60000 kPa, x2 = 0.6433) was 752 ± 3 kg/m3. It also gave a mass density (333.1 K, 80000 kPa, x2 = 0.6433) of 763 ± 3 kg/m3, a mass density (333.1 K, 100000 kPa, x2 = 0.6433) of 772 ± 3 kg/m3 and a mass density (342.67 K, 100 kPa, x2 = 0) of 713 ± 3 kg/m3. The mass density (342.67 K, 1000 kPa, x2 = 0) was 714 ± 3 kg/m3, the mass density (342.67 K, 5000 kPa, x2 = 0) was 718 ± 3 kg/m3 and the mass density (342.67 K, 10000 kPa, x2 = 0) was 722 ± 3 kg/m3. The mass density (342.67 K, 20000 kPa, x2 = 0) was 731 ± 3 kg/m3, the mass density (342.67 K, 30000 kPa, x2 = 0) was 738 ± 3 kg/m3 and the mass density (342.67 K, 40000 kPa, x2 = 0) was 745 ± 3 kg/m3. For the same compound, the mass density (342.67 K, 50000 kPa, x2 = 0) was 751 ± 3 kg/m3, the mass density (342.67 K, 60000 kPa, x2 = 0) was 757 ± 3 kg/m3 and the mass density (342.67 K, 69990 kPa, x2 = 0) was 763 ± 3 kg/m3. The mass density (342.67 K, 80000 kPa, x2 = 0) was 768 ± 3 kg/m3, the mass density (342.67 K, 90000 kPa, x2 = 0) was 773 ± 3 kg/m3 and the mass density (342.67 K, 100000 kPa, x2 = 0) was 778 ± 3 kg/m3. For the same compound, the mass density (342.92 K, 100 kPa, x2 = 0.2297) was 709 ± 3 kg/m3, the mass density (342.92 K, 100 kPa, x2 = 0.4436) was 705 ± 3 kg/m3 and the mass density (342.92 K, 1000 kPa, x2 = 0.2297) was 710 ± 3 kg/m3. For the same compound, the mass density (342.92 K, 1000 kPa, x2 = 0.4436) was 706 ± 3 kg/m3, the mass density (342.92 K, 5000 kPa, x2 = 0.2297) was 714 ± 3 kg/m3 and the mass density (342.92 K, 5000 kPa, x2 = 0.4436) was 710 ± 3 kg/m3. It also gave a mass density (342.92 K, 10000 kPa, x2 = 0.2297) of 718 ± 3 kg/m3, a mass density (342.92 K, 10000 kPa, x2 = 0.4436) of 714 ± 3 kg/m3 and a mass density (342.92 K, 20000 kPa, x2 = 0.2297) of 727 ± 3 kg/m3. The mass density (342.93 K, 100 kPa, x2 = 0.6433) was 701 ± 3 kg/m3, the mass density (342.93 K, 1000 kPa, x2 = 0.6433) was 702 ± 3 kg/m3 and the mass density (342.93 K, 20000 kPa, x2 = 0.4436) was 723 ± 3 kg/m3. It also gave a mass density (342.93 K, 30000 kPa, x2 = 0.2297) of 734 ± 3 kg/m3, a mass density (342.93 K, 30000 kPa, x2 = 0.4436) of 731 ± 3 kg/m3 and a mass density (342.93 K, 40000 kPa, x2 = 0.2297) of 741 ± 3 kg/m3. The mass density (342.93 K, 40000 kPa, x2 = 0.4436) was 738 ± 3 kg/m3, the mass density (342.93 K, 60000 kPa, x2 = 0.2297) was 753 ± 3 kg/m3 and the mass density (342.93 K, 60000 kPa, x2 = 0.4436) was 750 ± 3 kg/m3. For the same compound, the mass density (342.93 K, 80000 kPa, x2 = 0.4436) was 761 ± 3 kg/m3, the mass density (342.93 K, 100000 kPa, x2 = 0.4436) was 771 ± 3 kg/m3 and the mass density (342.94 K, 5000 kPa, x2 = 0.6433) was 706 ± 3 kg/m3. It also gave a mass density (342.94 K, 10000 kPa, x2 = 0.6433) of 710 ± 3 kg/m3, a mass density (342.94 K, 20000 kPa, x2 = 0.6433) of 719 ± 3 kg/m3 and a mass density (342.94 K, 30000 kPa, x2 = 0.6433) of 727 ± 3 kg/m3. The mass density (342.94 K, 40000 kPa, x2 = 0.6433) was 734 ± 3 kg/m3 and the mass density (342.94 K, 60000 kPa, x2 = 0.6433) was 747 ± 3 kg/m3.
